# Assay results taken from ChEMBL document CHEMBL1138758, “Efficient method for high-throughput virtual screening based on flexible docking: discovery of novel acetylcholinesterase inhibitors” (J Med Chem, 2004).
# Test: Inhibitory activity towards acetylcholine esterase (AChE)
# Parameters: species or system Tetronarce californica
row,SMILES,IC50 [µM]
1,CCCc1cc(-n2cccn2)ccc1C(=O)ONC(=N)c1ccc(C(F)(F)F)cc1,13
2,Cc1c(/N=C/c2ccccc2O)cc2c(c1N)C(C)(C)CC2(C)C,16
3,Cc1nc(N)ncc1-c1nnnn1-c1ccc(-c2ccccc2)cc1,27
4,COc1ccc(/N=C/c2cn(-c3ccc(OC)cc3)cc2/C=N/c2ccc(OC)cc2)cc1,14
5,O=C(O[C@@H]1Cc2c(O)cc(O)cc2O[C@@H]1c1ccc(O)c(O)c1)c1cc(O)c(O)c(O)c1 [EPICATECHIN GALLATE],28
6,CC(Cc1ccc(O)cc1)C1CCC(C)C(c2ccc(O)cc2)C1 (centres undefined),0.62
7,O=C(CC1S/C(=N/c2ccc(C3CCCCC3)cc2)NC1=O)Nc1ccc(OC(F)(F)F)cc1 (centres undefined),2.9
8,Cc1cc(C2(c3cc(C)c(O)c(C)c3)CCCCC2)cc(C)c1O,15
9,COc1cc(N)c(Cl)cc1C(=O)NC1CCN(Cc2ccccc2)CC1 [CLEBOPRIDE],0.89
10,Fc1ccc(N(Cc2ccc3c(c2)OCO3)C(=S)Nc2cccc(C(F)(F)F)c2)cc1,8
11,C/C(=N/O)c1ccc(Cl)c(NC(=O)c2c(-c3ccccc3Cl)noc2C)c1,6.7
12,CN(C)c1ccc(-c2c3cc(O)c(=O)cc-3oc3cc(O)c(O)cc23)cc1,22
13,CNC(=O)Oc1ccc2c(c1)[C@]1(C)CCN(C)[C@@H]1N2C [PHYSOSTIGMINE],0.36
14,O=C(Nc1cccc(C2=NCCN2)c1)Nc1cccc(C2=NCCN2)c1 [IMIDOCARB],0.59
